In the NIST ThermoML archive (doi:10.1021/je400055v):

Settings: Liquid, Vibrating tube method

Cc1ccc(O)cc1 [4-methylphenol]
Settings	mass density [kg/m3]
312.9 K, 1002 kPa	1019.4
312.9 K, 2016 kPa	1020
312.9 K, 3017 kPa	1020.6
312.9 K, 4016 kPa	1021.1
312.9 K, 5002 kPa	1021.7
312.9 K, 6010 kPa	1022.2
312.9 K, 7000 kPa	1022.8
312.9 K, 8006 kPa	1023.3
312.9 K, 9001 kPa	1023.9
312.9 K, 10002 kPa	1024.4
312.9 K, 11006 kPa	1024.9
312.9 K, 12002 kPa	1025.5
312.9 K, 13015 kPa	1026
312.9 K, 14007 kPa	1026.6
312.9 K, 15006 kPa	1027.1
312.9 K, 16019 kPa	1027.6
312.9 K, 17004 kPa	1028.1
312.9 K, 18011 kPa	1028.6
312.9 K, 19009 kPa	1029.2
312.9 K, 20005 kPa	1029.7
312.9 K, 21008 kPa	1030.2
312.9 K, 22004 kPa	1030.7
312.9 K, 23023 kPa	1031.2
312.9 K, 24004 kPa	1031.7
312.9 K, 25006 kPa	1032.2
322.78 K, 1019 kPa	1011.6
322.78 K, 2015 kPa	1012.2
322.78 K, 3002 kPa	1012.8
322.78 K, 4013 kPa	1013.4
322.78 K, 5011 kPa	1013.9
322.78 K, 6018 kPa	1014.5
322.78 K, 7022 kPa	1015.1
322.78 K, 8001 kPa	1015.7
322.78 K, 9015 kPa	1016.3
322.78 K, 10006 kPa	1016.8
322.78 K, 11002 kPa	1017.4
322.78 K, 12018 kPa	1017.9
322.78 K, 13002 kPa	1018.4
322.78 K, 14016 kPa	1019
322.78 K, 15001 kPa	1019.5
322.78 K, 16000 kPa	1020.1
322.78 K, 17001 kPa	1020.6
322.78 K, 18029 kPa	1021.2
322.78 K, 19015 kPa	1021.7
322.78 K, 20011 kPa	1022.2
322.78 K, 21022 kPa	1022.8
322.78 K, 22002 kPa	1023.3
322.78 K, 23006 kPa	1023.8
322.78 K, 24010 kPa	1024.4
322.78 K, 25023 kPa	1024.9
332.54 K, 1040 kPa	1003.7
332.54 K, 2019 kPa	1004.3
332.54 K, 3013 kPa	1005
332.54 K, 4019 kPa	1005.6
332.54 K, 5001 kPa	1006.2
332.54 K, 6001 kPa	1006.8
332.54 K, 7002 kPa	1007.5
332.54 K, 8041 kPa	1008.1
332.54 K, 9000 kPa	1008.7
332.54 K, 10001 kPa	1009.2
332.54 K, 11006 kPa	1009.7
332.54 K, 12001 kPa	1010.4
332.54 K, 13008 kPa	1010.9
332.54 K, 14004 kPa	1011.5
332.54 K, 15003 kPa	1012.1
332.54 K, 16015 kPa	1012.7
332.54 K, 17011 kPa	1013.3
332.54 K, 18014 kPa	1013.9
332.54 K, 19014 kPa	1014.4
332.54 K, 20009 kPa	1014.9
332.54 K, 21013 kPa	1015.4
332.54 K, 22007 kPa	1016
332.54 K, 23000 kPa	1016.6
332.54 K, 24001 kPa	1017.1
332.54 K, 25032 kPa	1017.7
342.37 K, 1001 kPa	995.7
342.37 K, 2002 kPa	996.4
342.37 K, 3004 kPa	997.1
342.37 K, 4025 kPa	997.7
342.37 K, 5036 kPa	998.2
342.37 K, 6032 kPa	998.8
342.37 K, 7001 kPa	999.3
342.37 K, 8020 kPa	999.9
342.37 K, 9003 kPa	1000.6
342.37 K, 10002 kPa	1001.3
342.37 K, 11036 kPa	1001.9
342.37 K, 12001 kPa	1002.6
342.37 K, 13020 kPa	1003.2
342.37 K, 14019 kPa	1003.9
342.37 K, 15007 kPa	1004.5
342.37 K, 16000 kPa	1005.1
342.37 K, 17022 kPa	1005.6
342.37 K, 18014 kPa	1006.2
342.37 K, 19033 kPa	1006.8
342.37 K, 20005 kPa	1007.4
342.37 K, 21005 kPa	1007.9
342.37 K, 22010 kPa	1008.4
342.37 K, 22962 kPa	1009
342.37 K, 24021 kPa	1009.7
342.37 K, 25017 kPa	1010.2
352.15 K, 1023 kPa	987.9
352.15 K, 2007 kPa	988.5
352.15 K, 3000 kPa	989.1
352.15 K, 4003 kPa	989.8
352.15 K, 5001 kPa	990.4
352.15 K, 6009 kPa	991.1
352.15 K, 7001 kPa	991.7
352.15 K, 8037 kPa	992.4
352.15 K, 9008 kPa	993
352.15 K, 10040 kPa	993.7
352.15 K, 11006 kPa	994.3
352.15 K, 12001 kPa	994.9
352.15 K, 13001 kPa	995.5
352.15 K, 14009 kPa	996.2
352.15 K, 15000 kPa	996.8
352.15 K, 16010 kPa	997.4
352.15 K, 17028 kPa	998
352.15 K, 18020 kPa	998.6
352.15 K, 19045 kPa	999.3
352.15 K, 20018 kPa	1000
352.15 K, 21038 kPa	1000.5
352.15 K, 22000 kPa	1001.1
352.15 K, 23065 kPa	1001.8
352.15 K, 24024 kPa	1002.4
352.15 K, 25039 kPa	1002.9
361.9 K, 1017 kPa	979.6
361.9 K, 1991 kPa	980.3
361.9 K, 3004 kPa	981
361.9 K, 4027 kPa	981.5
361.9 K, 4992 kPa	982.3
361.9 K, 6000 kPa	983.1
361.9 K, 7033 kPa	983.6
361.9 K, 8010 kPa	984.4
361.9 K, 9001 kPa	985
361.9 K, 9998 kPa	985.8
361.9 K, 10994 kPa	986.5
361.9 K, 11976 kPa	987
361.9 K, 12949 kPa	987.7
361.9 K, 14010 kPa	988.3
361.9 K, 15017 kPa	989
361.9 K, 15992 kPa	989.6
361.9 K, 16992 kPa	990.3
361.9 K, 18007 kPa	990.8
361.9 K, 19034 kPa	991.6
361.9 K, 19992 kPa	992.1
361.9 K, 21000 kPa	992.9
361.9 K, 22059 kPa	993.4
361.9 K, 23020 kPa	994.1
361.9 K, 24014 kPa	994.8
361.9 K, 25002 kPa	995.3
